Measured values published in patent US7312219B2, “Heteroaromatic inhibitors of fructose 1,6-bisphosphatase” (Metabasis Therapeutics, Inc., priority 1998, dated 2007).
Where two headings read alike, the source gives them in different places.

Columns and labels:
rat liver FBPase = target: T1, rat liver FBPase (Rattus norvegicus, UniProt P19112); test: Inhibition of Rat Liver FBPase
T1 sequence (P19112 2-363 limits assumed): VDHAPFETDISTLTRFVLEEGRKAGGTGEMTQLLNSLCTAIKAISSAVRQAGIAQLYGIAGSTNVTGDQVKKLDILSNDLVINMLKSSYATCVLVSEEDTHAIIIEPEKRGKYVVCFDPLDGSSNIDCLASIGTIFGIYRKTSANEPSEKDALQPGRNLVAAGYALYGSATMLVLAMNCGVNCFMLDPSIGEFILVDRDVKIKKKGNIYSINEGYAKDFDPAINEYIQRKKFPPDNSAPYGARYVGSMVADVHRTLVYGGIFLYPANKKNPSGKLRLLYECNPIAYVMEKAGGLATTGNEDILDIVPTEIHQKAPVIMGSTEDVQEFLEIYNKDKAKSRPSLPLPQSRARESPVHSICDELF
Description: Enzymatic activity was measured spectrophotometrically in reactions that coupled the formation of product (fructose 6-phosphate) to the reduction of dimethylthiazoldiphenyltetrazolium bromide (MTT) via NADP^+ and phenazine methosulfate (PMS), using phosphoglucose isomerase and glucose 6-phosphate dehydrogenase as the coupling enzymes.
E. coli strain BL21 transformed with a rat liver FBPase-encoding plasmid was obtained from Dr. M. R. El-Maghrabi at the State University of New York at Stony Brook.

human liver FBPase = target: T2, human liver FBPase (Homo sapiens, UniProt P09467); test: Inhibition of Human Liver FBPase; format: biochemical; details: read-out: IC50 (hlFBPase)
T2 construct: made in house; host or cells: E. coli BL21
T2 sequence (P09467 2-338 limits assumed): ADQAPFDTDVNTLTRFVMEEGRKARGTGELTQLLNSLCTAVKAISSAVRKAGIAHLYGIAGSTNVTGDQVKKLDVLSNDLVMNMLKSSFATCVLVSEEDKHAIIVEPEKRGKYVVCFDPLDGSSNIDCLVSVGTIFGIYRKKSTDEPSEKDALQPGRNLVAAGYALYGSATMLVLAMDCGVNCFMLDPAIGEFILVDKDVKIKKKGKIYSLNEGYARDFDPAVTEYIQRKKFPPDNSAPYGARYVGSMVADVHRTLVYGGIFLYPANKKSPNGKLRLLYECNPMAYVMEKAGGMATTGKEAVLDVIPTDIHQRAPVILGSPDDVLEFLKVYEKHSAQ

[1] = target: T3, Adenylate Kinase (rabbit muscle) (Oryctolagus cuniculus, UniProt P00569); test: AMP Site/Enzyme Selectivity: Adenylate Kinase; format: biochemical; details: read-out: Adenylate Kinase (inh.)
T3 construct: Enzyme (rabbit muscle) was purchase from Sigma; purchased Sigma; host or cells: rabbit muscle
T3 sequence (P00569 1-194): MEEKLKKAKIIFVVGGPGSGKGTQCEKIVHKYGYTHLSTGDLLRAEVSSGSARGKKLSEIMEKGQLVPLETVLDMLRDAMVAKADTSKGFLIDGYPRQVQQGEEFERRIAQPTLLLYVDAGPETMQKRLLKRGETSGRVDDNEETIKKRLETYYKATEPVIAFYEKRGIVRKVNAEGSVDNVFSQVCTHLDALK

[2] = Estimation of the Oral Bioavailability of Phosphonic Acids and their Prodrugs; format: in vivo, rat; details: Sprague-Dawley, rat, urine; fasted rats, oral 10–50 mg/kg, 24 h urinary recovery of phosphonic acid, oral vs intravenous
Description: Phosphonic acids were dissolved in water, and the solution adjusted to neutrality with sodium hydroxide. Prodrugs were dissolved in 10% ethanol/90% polyethlene glycol (mw 400). Compound was administered by oral gavage to 18-hour fasted Sprague-Dawley rats (220–250 g) at doses ranging from 10–50 mg/kg. The rats were subsequently placed in metabolic cages and urine was collected for 24 hours. The quantity of phosphonic acid excreted into urine was determined by HPLC analysis as described in Example G. In a separate study, urinary recovery was determined following intravenous (tail vein) administration of compound (in the case of the prodrugs, the appropriate parent phosphonic acid was administered i.v.).

[3] = Analysis of Drug Levels and Liver Accumulation in Rats; format: in vivo, rat; details: fasted rats, 10 mgs/kg i.v., one hour post injection, liver
Description: The compound was dissolved in water and the solution adjusted to neutrality with NaOH. One hour post injection rats were anesthetized with halothane and a liver biopsy (approx. 1 g) was taken as well as a blood sample (2 ml) from the posterior vena cava. A heparin flushed syringe and needle were used for blood collection. The liver sample was immediately homogenized in ice-cold 10% perchloric acid (3 ml), centrifuged, and the supernatant neutralized with ⅓rd volume of 3 M KOH/3 M KHCO3. […] Plasma was prepared from the blood sample by centrifugation and extracted by addition of methanol to 60% (v/v). The methanolic extract was clarified by centrifugation and filtration and then analyzed by HPLC as described above.

Human adenosine kinase = target: T4, Human adenosine kinase (Homo sapiens, UniProt P55263); test: AMP Site/Enzyme Selectivity: Adenosine Kinase; format: biochemical; details: read-out: Adenosine Kinase (inh.)
T4 construct: made in house; host or cells: E. coli
T4 sequence (P55263 1-345 isoform P55263-2): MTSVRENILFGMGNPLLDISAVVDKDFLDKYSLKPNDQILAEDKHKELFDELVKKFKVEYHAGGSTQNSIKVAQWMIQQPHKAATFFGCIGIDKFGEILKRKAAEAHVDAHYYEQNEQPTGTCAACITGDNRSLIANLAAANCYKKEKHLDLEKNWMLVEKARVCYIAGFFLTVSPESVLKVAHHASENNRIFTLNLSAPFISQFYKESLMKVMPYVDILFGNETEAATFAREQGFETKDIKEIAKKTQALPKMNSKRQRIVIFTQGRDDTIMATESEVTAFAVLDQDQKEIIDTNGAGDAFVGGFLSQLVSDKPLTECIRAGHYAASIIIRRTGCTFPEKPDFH

Fasted Rat = test: Glucose Lowering Following Oral Administration to the Fasted Rat; format: in vivo; details: oral gavage, 18-hour fasted rats, dose 90 mg/kg, time point 3 h, relative to saline controls
Description: Compounds were administered by oral gavage to 18-hour fasted, Sprague Dawley rats (250–300 g, n =3/4/group). Phosphonic acids were prepared in deionized water, and the solution adjusted to neutrality with solidum hydroxide. Prodrugs were dissolved in polyethylene glycol (mw 400). […] The table below indicates the maximum glucose lowering achieved relative to control animals dosed with saline.

Fasted Rats = test: Blood Glucose Lowering Following Intravenous Administration to Fasted Rats; format: in vivo, rat; details: Rattus norvegicus, iv; 18 h fasted Sprague Dawley rats, 10 mg/kg i.v., 1 hour, relative to saline-treated controls
Description: Inhibitors were disolved in water and the solution adjusted to neutrality with NaOH. Blood samples were obtained from the tail vein of conscious animals just prior to injection and after 1 hour. Blood glucose was measured using a HemoCue Inc. glucose analyzer according to the instructions of the manufacturer.

Porcine heart AMPDA = test: AMP Site/Enzyme Selectivity: Adenosine Monophosphate Deaminase; format: biochemical; details: read-out: AMP Deaminase (inh.)
[4] = target: T5, Glycogen Phosphorylase (rabbit muscle) (Oryctolagus cuniculus, UniProt P00489); test: AMP Site/Enzyme Selectivity: Glycogen Phosphorylase; format: biochemical; details: activation; read-out: Glycogen Phosphorylase (act.)
T5 construct: Enzyme (rabbit muscle) was purchased from Sigma; purchased Sigma; host or cells: rabbit muscle
T5 sequence (P00489 2-843 limits assumed): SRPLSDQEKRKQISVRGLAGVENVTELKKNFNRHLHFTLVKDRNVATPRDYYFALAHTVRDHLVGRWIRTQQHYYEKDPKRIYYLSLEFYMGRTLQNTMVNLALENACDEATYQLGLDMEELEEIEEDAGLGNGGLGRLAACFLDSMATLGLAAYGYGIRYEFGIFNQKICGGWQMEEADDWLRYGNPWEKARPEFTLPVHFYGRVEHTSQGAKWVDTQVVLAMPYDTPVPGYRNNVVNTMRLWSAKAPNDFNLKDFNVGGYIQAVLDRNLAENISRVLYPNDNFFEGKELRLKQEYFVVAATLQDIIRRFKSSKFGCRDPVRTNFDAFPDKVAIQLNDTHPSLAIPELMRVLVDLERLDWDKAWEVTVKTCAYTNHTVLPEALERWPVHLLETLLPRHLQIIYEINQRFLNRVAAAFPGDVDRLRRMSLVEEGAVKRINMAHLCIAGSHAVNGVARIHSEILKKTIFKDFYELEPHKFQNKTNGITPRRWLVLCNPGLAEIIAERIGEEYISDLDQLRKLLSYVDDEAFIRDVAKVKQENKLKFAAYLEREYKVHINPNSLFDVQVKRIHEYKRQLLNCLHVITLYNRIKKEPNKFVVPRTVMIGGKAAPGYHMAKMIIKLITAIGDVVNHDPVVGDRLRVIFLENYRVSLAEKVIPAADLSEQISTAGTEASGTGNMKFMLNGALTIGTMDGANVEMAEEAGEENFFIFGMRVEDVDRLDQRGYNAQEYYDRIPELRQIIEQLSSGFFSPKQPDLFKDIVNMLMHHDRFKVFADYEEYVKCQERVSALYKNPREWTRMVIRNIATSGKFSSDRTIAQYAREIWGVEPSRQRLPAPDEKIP

[5] = tested on: Gluconeogenesis in Rat Hepatocytes; test: Inhibition of Gluconeogenesis in Rat Hepatocytes; format: cell-based; details: Hepatocyte, 10 mM lactate, 1 mM pyruvate, 1 hour incubation, read-out: IC50 Glucose Production
Description: Hepatocytes were prepared from overnight fasted Sprague-Dawley rats (250–300 g) according to the procedure of Berry and Friend (Berry, M. N., Friend, D. S., 1969, J. Cell. Biol. 43, 506–520) as modified by Groen (Groen, A. K., Sips, H. J., Vervoorn, R. C., Tager, J. M. , 1982, Eur. J. Biochem. 122, 87–93). Hepatocytes (75 mg wet weight/ml) were incubated in 1 ml Krebs-bicarbonate buffer containing 10 mM Lactate, 1 mM pyruvate, 1 mg/ml BSA, and test compound concentrations from 1 to 500 μM. Incubations were carried out in a 95% oxygen, 5% carbon dioxide atmosphere in closed, 50-ml Falcon tubes submerged in a rapidly shaking water bath (37° C.). After 1 hour, an aliquot (0.25 ml) was removed, transferred to an Eppendorf tube and centrifuged. 50 μl of supernatant was then assayed for glucose content using a Sigma Glucose Oxidase kit as per the manufacturer's instructions.

| Structure (SMILES) | IC50 [1] [µM] | bioavailability [2] [%] | IC50 (Human adenosine kinase) [µM] | IC50 (Porcine heart AMPDA) [µM] | EC50 [4] [µM] | IC50 (human liver FBPase) [µM] | inhibition in vivo at 10 mg/kg (Fasted Rats) [%] | other results |
| --- | --- | --- | --- | --- | --- | --- | --- | --- |
| CC(C)Cc1[se]c(N)nc1-c1ccc(P(=O)(O)O)o1 [Compound 3.70, 2-Amino-5-isobutyl-4-[2-(5-phosphono)furanyl]selenazole] |  |  |  |  |  | 0.04 |  | IC50 (rat liver FBPase): 0.15 µM |
| CC(C)Cc1oc(N)nc1-c1ccc(P(=O)(O)O)o1 [Compound 10.1, 2-amino-5-isobutyl-4-[2-(5-phosphono)furanyl]oxazole] | > 500 | 21 | > 10 | > 10 | > 100 |  | 51 | Liver Conc. [3]: 35.6 ± 4.2 nmol/g; % Glucose Lowering (maximum) (Fasted Rat): 55% |
| Nc1ncnc2c1ncn2[C@@H]1O[C@H](COP(=O)(O)O)[C@@H](O)[C@H]1O [AMP, reference compound] |  |  |  |  |  | 1 |  | IC50 (rat liver FBPase; read-out: IC50 (rlFBPase)): 20 µM |
| CCc1cc(CC)c(-c2ccc(P(=O)(O)O)o2)nc1N [Compound 15.4, 2-amino-3,5-diethyl-6-[2-(5-phosphono)furanyl]pyridine] |  |  |  |  |  |  |  | melting point: 217 to 218 °C |
| CC(C)Cc1sc(N)nc1-c1ccc(P(=O)(O)O)o1 [Compound 3.1, 2-amino-5-isobutyl-4-[2-(5-phosphono)furanyl]thiazole] | > 500 | 4 | > 10 | > 10 | > 100 |  | 65 | IC50 [5]: 2.5 µM |
